The target of test [1] is T1, GST-XIAP BIR3RING (Homo sapiens, UniProt P98170).
T1 construct: made in house; host or cells: E. coli DH5-alpha
Briefly: Fluorescence polarization-based competition assay, XIAP Bir3-RING. It is filed as binding. Here is the method:
GST-XIAP BIR3RING: XIAP coding sequence amino acids 246-497 cloned into PGEX2T1 via BamH1 and AVA I. The plasmid was transformed into E. coli DH5α for use in protein expression and purification.
(§1) A fluorescent peptide probe, Fmoc-Ala-Val-Pro-Phe-Tyr(t-Bu)-Leu-Pro-Gly(t-Bu)-Gly-OH was prepared using standard Fmoc chemistry on 2-chlorotrityl chloride resin (Int. J. Pept. Prot. Res. 38:555-561, 1991). Cleavage from the resin was performed using 20% acetic acid in dichloromethane (DCM), which left the side chain still blocked. The C-terminal protected carboxylic acid was coupled to 4′-(aminomethyl)fluorescein (Molecular Probes, A-1351; Eugene, Oreg.) using excess diisopropylcarbodiimide (DIC) in dimethylformamide (DMF) at room temperature and was purified by silica gel chromatography (10% methanol in DCM). The N-terminal Fmoc protecting group was removed using piperidine (20%) in DMF, and purified by silica gel chromatography (20% methanol in DCM, 0.5% HOAc). Finally, the t-butyl side chain protective groups were removed using 95% trifluoroacetic acid containing 2.5% water and 2.5% triisopropyl silane. […] Compound #174 was also used as a fluorescent probe in this assay.
(§2) For all assays, the fluorescence and fluorescence-polarization was evaluated using a Tecan Polarion instrument with the excitation filter set at 485 nm and the emission filter set at 535 nm. For each assay, the concentration of the target protein was first establish by titration of the selected protein in order to produce a linear dose-response signal when incubated alone in the presence of the fluorescent probe. Upon establishing these conditions, the compounds potency (IC50) and selectivity, was assessed in the presence of a fix defined-amount of target protein and fluorescent probe and a 10 point serial dilution of the selected compounds. For each IC50 curve, the assays were run as followed: 25 ul/well of diluted compound in 50 mM MES buffer pH 6.5 were added into a black 96 well plate then 25 ul/well of bovine serum albumin (BSA) at 0.5 mg/ml in 50 mM MES pH 6.5. Auto-fluorescence for each compound was first assessed by performing a reading of the compound/BSA solution alone. Then 25 ul of the fluorescein probe diluted into 50 mM MES containing 0.05 mg/ml BSA were added and a reading to detect quenching of fluorescein signal done. Finally 25 ul/well of the target or control protein (GST-BIRs) diluted at the appropriate concentration in 50 mM MES containing 0.05 mg/ml BSA were added and the fluorescence polarization evaluated.
(§3) For each assay the relative polarization-fluorescence units were plotted against the final concentrations of compound and the IC50 calculated using the Grad pad prism software and/or Cambridge soft. The ki value were derived from the calculated IC50 value as described above and according to the equation described in Nikolovska-Coleska, Z. (2004) Anal Biochem 332, 261-273.
(§4) Compounds exemplified in Table 6 were tested and found to have IC50s in the following ranges: A: >10 μM; B: <10 μM; C: <1 μM using the fluorescence polarization assay, as shown in Table 5. Each of the IC50s was calculated from Graph Pad.
A general note: In fluorescence polarisation assays a small probe gives low polarisation when free and higher when bound to something large.

Test [2] has as its target T2, GST-HIAP2 (cIAP-1) BIR 3 (Homo sapiens, UniProt Q13490).
T2 construct: made in house; host or cells: E. coli DH5-alpha
Briefly: Fluorescence polarization-based competition assay, cIAP-1 Bir3. The class given is binding. Here is the method:
GST-HIAP2 (cIAP-1) BIR 3: HIAP2 coding sequence from amino acids 251-363 cloned into PGex4T3 via BamH1 and XhoI. The plasmid was transformed into E. coli DH5α for use in protein expression and purification.
as §1, §2, §3, §4

Test [3] has as its target T3, GST-HIAP1(cIAP-2) BIR 3 (Homo sapiens, UniProt Q13489).
T3 construct: made in house; host or cells: E. coli DH5-alpha
As to the kind of experiment: Fluorescence polarization-based competition assay, cIAP-2 Bir3. It is filed as binding. Here is the method:
GST-HIAP1(cIAP-2) BIR 3: HIAP1 coding sequence from amino acids 236-349, cloned into PGex4T3 via BamH1 and XhoI. The plasmid was transformed into E. coli DH5α for use in protein expression and purification.
as §1, §2, §3, §4

In test [4] the target is T4, XIAP Bir3-RING (GST-BIR 3RING) (Homo sapiens, UniProt P98170).
T4 construct: made in house; host or cells: E. coli DH5-alpha
As to the kind of experiment: Caspase de-repression assay using cellular extracts (apoptosome), XIAP Bir3-RING. Particulars: 293 cell S100 extract. It is filed as biochemical. Here is the method: (§5) 100 ug of 293 cell S100 extract and 0.25 uM-2 uM of GST-Xiap fusion protein (GST-BIR 3RING, GST-linker BIR2 BIR3RING) were co-incubated with serial dilutions of compound (0.02 uM-40 uM). Extracts were activated by adding 1 mM dATP, 0.1 mM ALLN, 133 ug Cytochrome C (final concentrations), and incubating at 37° C. for 25 minutes. All reactions and dilutions used S100 buffer (50 mM Pipes pH 7.0, 50 mM KCl, 0.5 mM EGTA pH 8.0, 2 mM MgCl2 supplemented with 1/1000 dilutions of 2 mg/ml Cytochalisin B, 2, mg/ml Chymotstatin, Leupeptin, Pepstatin, Antipain, 0.1M PMSF, 1M DTT). Final reaction volume was 30 ul. Caspase-3 activity was measured by overlaying 30 ul of a 0.4 mM DEVD-AMC solution. AMC cleavage was measured in a TECAN spectrophotometer at 360 nm excitation and 444 nm emission, on a kinetic cycle of 1 hour with readings taken every 5 minutes. Caspase activity was calculated as Vo of AMC fluorescence/sec. Caspase de-repression by our compounds were compared to fully activated extract and activated extract repressed by the presence of XIAP fusion protein.
(§6) Results: Compounds were also tested in the apoptosome assay and the linker-BIR2/caspase-3 inhibition assay and found to have IC50s in the following ranges: A: >10 μM; B: <10 μM; C: <1 μM, as shown in Table 7.

Test [5] addresses T5, XIAP Bir2-Bir3-RING (GST-linker BIR2 BIR3RING) (Homo sapiens, UniProt P98170).
T5 construct: made in house; host or cells: E. coli DH5-alpha
As to the kind of experiment: Caspase de-repression assay using cellular extracts (apoptosome), XIAP Bir2-Bir3-RING. The conditions noted are these: 293 cell S100 extract. The class given is biochemical. Here is the method:
as §5, §6

The target in test [6] is T6, caspase-3 inhibited by linker BIR2-BIR3-RING of XIAP (Homo sapiens, UniProt P98170).
T6 construct: made in house; host or cells: E. coli DH5-alpha (GST-XIAP); E. coli AD494 (His-caspase-3)
As to the kind of experiment: Caspase-3 linker-BIR2-BIR3-RING derepression assay. The class given is biochemical. Here is the method: In order to determine the relative activity of the selected compound against BIR2, an in vitro assay was used where caspase-3 was inhibited by linker-BIR2 or linker BIR2-BIR3-RING of XIAP. Briefly, 1.5 ul of the enzyme, 0.25 uM to 2 uM of GST-Xiap fusion protein (GST-linker BIR2, GST-linker BIR2BIR3RING) were co-incubated with serial dilutions of compound (80 uM-0.04 uM). Caspase 3 activity was measured by overlaying 25 ul of a 0.4 mM DEVD-AMC solution. Final reaction volume was 100 ul. All dilutions were performed in caspase buffer (50 mM Hepes pH 7.4, 100 mM NaCl, 10% sucrose, 1 mM EDTA, 10 mM DTT, 0.1% CHAPS (Stennicke, H. R., and Salvesen, G. S. (1997). Biochemical characteristics of caspase-3, -6, -7, and -8. J. Biol. Chem. 272, 25719-25723)).
The fluorescent AMC released from the caspase-3 hydrolysis of the substrate was measured in a TECAN spectrophotometer at 360 nm excitation and 444 nm emission, on a kinetic cycle of 30 minutes with readings taken every 2 minutes. Caspase activity was calculated as Vo of AMC fluorescence/sec. Caspase de-repression by our compounds were compared to caspase-3 alone and caspase 3 repressed by the presence of XIAP fusion protein.
as §6

Molecules are shown by their SMILES.

T3 sequence (Q13489 236-349): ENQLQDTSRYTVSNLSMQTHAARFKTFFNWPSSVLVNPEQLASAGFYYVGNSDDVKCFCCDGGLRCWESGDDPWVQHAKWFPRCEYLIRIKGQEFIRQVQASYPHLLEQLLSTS
T4 sequence (P98170 246-497): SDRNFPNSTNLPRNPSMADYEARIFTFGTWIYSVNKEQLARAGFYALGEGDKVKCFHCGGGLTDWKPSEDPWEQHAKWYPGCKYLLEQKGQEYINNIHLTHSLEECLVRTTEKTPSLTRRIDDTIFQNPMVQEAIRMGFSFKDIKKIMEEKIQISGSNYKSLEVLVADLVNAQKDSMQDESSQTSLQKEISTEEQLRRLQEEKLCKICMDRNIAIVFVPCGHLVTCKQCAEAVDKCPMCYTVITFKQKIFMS
T1 sequence (P98170 246-497): as above
T2 sequence (Q13490 251-363): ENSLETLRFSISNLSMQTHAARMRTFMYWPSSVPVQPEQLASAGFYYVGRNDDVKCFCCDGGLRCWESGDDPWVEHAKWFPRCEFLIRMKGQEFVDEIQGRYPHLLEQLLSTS
T5 sequence (P98170 93-497): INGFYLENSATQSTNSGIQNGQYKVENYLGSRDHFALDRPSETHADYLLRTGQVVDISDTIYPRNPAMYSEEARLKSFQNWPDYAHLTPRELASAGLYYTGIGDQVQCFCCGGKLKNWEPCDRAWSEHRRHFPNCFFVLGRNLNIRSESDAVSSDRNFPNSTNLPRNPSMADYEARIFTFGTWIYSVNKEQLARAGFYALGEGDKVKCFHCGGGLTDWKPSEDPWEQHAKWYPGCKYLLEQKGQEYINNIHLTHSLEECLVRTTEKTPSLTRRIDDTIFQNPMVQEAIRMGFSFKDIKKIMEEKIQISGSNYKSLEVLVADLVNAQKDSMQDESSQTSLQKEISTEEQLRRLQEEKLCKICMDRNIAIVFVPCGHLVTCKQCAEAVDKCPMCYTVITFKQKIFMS
T6 sequence (P98170 93-497): as above

On to `CN[C@@H](C)C(=O)N[C@H](C(=O)N1CCC[C@H]1CN(CCc1ccccc1)C(=O)C(F)(F)F)C(C)(C)C` [Compound 10], for which the IC50 was less than 1 µM in test [1]; less than 1000 nM in test [2]; less than 1000 nM in test [3]; less than 10000 nM in test [4]; greater than 10 µM in test [5]; greater than 10 µM in test [6].
On to `CC(C)[C@H](NC(=O)[C@H](C)N)C(=O)N1CCC[C@H]1CN(CCc1ccccc1)C(=O)Cc1ccccc1` [Compound 23], for which the IC50 in test [1] is less than 1 µM; in test [2] it was less than 1000 nM; in test [3] it was less than 1000 nM; in test [4], less than 1000 nM; in test [5] it was greater than 10 µM; in test [6], greater than 10 µM.
Consider `CC[C@H](N)C(=O)N[C@H](C(=O)N1CCC[C@H]1CN(Cc1ccccc1)C(=O)C(F)(F)F)C(C)C` [Compound 12], for which the IC50 in test [1] is less than 10 µM; in test [2], greater than 10000 nM; in test [3], greater than 10000 nM; in test [4], less than 1000 nM; in test [5] it was greater than 10 µM; in test [6] it was greater than 10 µM.
In the case of `CC(C)[C@H](NC(=O)[C@H](C)N)C(=O)N1CCC[C@H]1CN(CCc1ccccc1)C(=O)CN` [Compound 30], the IC50 in test [1] was less than 1 µM; in test [2], less than 1000 nM; in test [3] it was less than 1000 nM; in test [4], less than 1000 nM; in test [5] it was greater than 10 µM; in test [6], greater than 10 µM.
For the compound `CC(C)[C@H](NC(=O)[C@H](C)N)C(=O)N1CCC[C@H]1CN(CCc1ccccc1)S(C)(=O)=O` [Compound 17], the IC50 was less than 10 µM in test [1]; less than 1000 nM in test [2]; less than 1000 nM in test [3]; less than 1000 nM in test [4]; greater than 10 µM in test [5]; greater than 10 µM in test [6].
As to `CC[C@H](N)C(=O)N[C@H](C(=O)N1CCC[C@H]1CN([C@H](C)c1ccccc1)S(C)(=O)=O)C(C)C` [Compound 6], the IC50 in test [1] was greater than 10 µM; in test [2], greater than 10000 nM; in test [3], greater than 10000 nM; in test [4], less than 1000 nM; in test [5], less than 10 µM; in test [6], greater than 10 µM.
Consider `CC(C)[C@H](NC(=O)[C@H](C)N)C(=O)N1CCC[C@H]1CN(C(=O)C(F)(F)F)[C@@H]1CCCc2ccccc21` [Compound 3], for which the IC50 in test [1] is less than 10 µM; in test [2], less than 10000 nM; in test [3] it was less than 10000 nM; in test [4] it was less than 1000 nM; in test [5], greater than 10 µM; in test [6], less than 10 µM.
For the compound `CC(C)[C@H](NC(=O)[C@H](C)N)C(=O)N1CCC[C@H]1CN(CCc1ccccc1)C(=O)CCc1ccccc1` [Compound 21], the IC50 in test [1] was less than 1 µM; in test [2], less than 1000 nM; in test [3], less than 1000 nM; in test [4] it was less than 1000 nM; in test [5] it was greater than 10 µM; in test [6] it was greater than 10 µM.
Take `CC[C@H](N)C(=O)N[C@H](C(=O)N1CCC[C@H]1CNC(=O)Cc1ccccc1)C(C)C` [Compound 14]: the IC50 in test [1] was greater than 10 µM; in test [2], greater than 10000 nM; in test [3], greater than 10000 nM; in test [4] it was less than 10000 nM; in test [5], greater than 10 µM; in test [6], greater than 10 µM.
On to `CC(C)[C@H](NC(=O)[C@H](C)N)C(=O)N1CCC[C@H]1CN(CCc1ccccc1)C(=O)C(F)(F)F` [Compound 20], for which the IC50 is less than 1 µM in test [1]; less than 1000 nM in test [2]; less than 1000 nM in test [3]; less than 1000 nM in test [4]; greater than 10 µM in test [5]; greater than 10 µM in test [6].
As to `CC[C@H](N)C(=O)N[C@H](C(=O)N1CCC[C@H]1CN(CCc1ccccc1)C(C)=O)C(C)C` [Compound 5], the IC50 was less than 10 µM in test [1]; less than 1000 nM in test [2]; less than 1000 nM in test [3]; less than 1000 nM in test [4]; greater than 10 µM in test [5]; less than 10 µM in test [6].
For `CC(C)[C@H](NC(=O)[C@H](C)N)C(=O)N1CCC[C@H]1CN(CCc1ccccc1)C(=O)CCCc1ccccc1` [Compound 31], the IC50 in test [1] is less than 1 µM; in test [2], less than 1000 nM; in test [3], less than 1000 nM; in test [4] it was less than 1000 nM; in test [5] it was greater than 10 µM; in test [6] it was greater than 10 µM.
With `CC[C@H](N)C(=O)N[C@H](C(=O)N1CCC[C@H]1CN(C(C)=O)[C@@H]1CCCc2ccccc21)C(C)C` [Compound 9], the IC50 in test [1] was less than 10 µM; in test [2], greater than 10000 nM; in test [3], greater than 10000 nM; in test [4], less than 1000 nM; in test [5], greater than 10 µM; in test [6] it was greater than 10 µM.
Consider `CN[C@@H](C)C(=O)N[C@H](C(=O)N1CCC[C@H]1CN(CCc1ccccc1)C(=O)CCc1ccccc1)C(C)(C)C` [Compound 27], for which the half-inhibitory concentration (IC50) in test [1] is less than 1 µM; in test [2], less than 1000 nM; in test [3] it was less than 1000 nM; in test [4], less than 1000 nM; in test [5], less than 10 µM; in test [6], greater than 10 µM.

By IC50 is commonly meant the midpoint of a concentration-inhibition curve. Read a high IC50 as lower potency.

Source of the values: patent US7772177B2, “BIR domain binding compounds” (Aegera Therapeutics, Inc., priority 2005, dated 2010).
